Reference: EPA's ToxRefDB 2

How the values were obtained:
rat [1] = conditions: Sub-acute repeat dose toxicity, sprague dawley, Oral, Gavage/Intubation, dose end: 28 day, group: systemic
dog [2] = conditions: Sub-acute repeat dose toxicity; beagle; Oral; Capsule; dose end: 1 month; group: systemic; systemic / in life observation / clinical signs / defecation (diarrhea) + systemic / in life observation / clinical signs / emesis + …
dog [3] = conditions: Chronic toxicity; beagle; Oral; Feed; dose end: 104 week; group: systemic; systemic / hematology / [other] / [other] + systemic / hematology / eosinophils / eosinophils + systemic / hematology / erythroblast / …
rat [4] = conditions: Prenatal developmental toxicity study, wistar, Oral, Gavage/Intubation, dose end: 16 GD
dog [5] = conditions: Subchronic oral toxicity in nonrodent, beagle, Feed, dose end: 90 day
rat [6] = conditions: Multigenerational reproductive toxicity study, sprague dawley, Oral, Feed, dose end: 2 generation
mouse [7] = conditions: Subchronic oral toxicity in rodents, b6c3f1, Gavage/Intubation, dose end: 13 week, group: systemic
mouse [8] = conditions: Combined chronic toxicity/carcinogenicity, b6c3f1, Inhalation, Whole-Body, dose end: 103 week, group: systemic
rat [9] = conditions: Subchronic inhalation toxicity, sprague dawley, Whole-Body, dose end: 13 week, group: systemic, systemic / hematology / erythrocyte (rbc) count differential / erythrocyte (rbc) + systemic / hematology / hemoglobin (hgb) / hemoglobin (…
rat [10] = conditions: Subchronic oral toxicity in rodents, fischer, Gavage/Intubation, dose end: 13 week, group: systemic
rabbit = conditions: Prenatal developmental toxicity study, new zealand white, Oral, Gavage/Intubation, dose end: 18 GD
rat [11] = conditions: Combined chronic toxicity/carcinogenicity; fischer; Inhalation; Whole-Body; dose end: 103 week; group: systemic; systemic / pathology microscopic / larynx / metaplasia + systemic / pathology microscopic / nose / pigmentation + systemic / pathology …
[12] = systemic / clinical chemistry / glucose / glucose + systemic / clinical chemistry / cholesterol / cholesterol
[13] = systemic / clinical chemistry / glucose / glucose + systemic / hematology / platelet / platelet + systemic / pathology microscopic / liver…
[14] = group: developmental, developmental / developmental malformation / bone / [other] + developmental / developmental malformation / bone / bipartite ossification + …
[15] = group: maternal, systemic / in life observation / body weight / body weight gain + systemic / in life observation / food consumption / food consumption
[16] = group: cholinesterase, cholinesterase / cholinesterase / cholinesterase / plasma cholinesterase (che) + cholinesterase / cholinesterase / cholinesterase / …
[17] = group: systemic, systemic / hematology / [other] / [other] + systemic / hematology / erythroblast / erythroblast + systemic / hematology / lymphocyte / …
[18] = group: offspring, systemic / in life observation / body weight / offspring (pup) weight
[19] = group: parental, systemic / in life observation / body weight / body weight gain + systemic / in life observation / food consumption / food consumption + …
[20] = systemic / in life observation / body weight / body weight gain + systemic / in life observation / clinical signs / fur (altered appearance…
[21] = systemic / organ weight / kidney / relative to brain weight + systemic / organ weight / liver / relative to brain weight
[22] = systemic / pathology microscopic / nose / pigmentation + systemic / pathology microscopic / trachea / pigmentation
[23] = group: developmental, developmental / developmental malformation / bone / malformation, total
[24] = group: maternal, systemic / in life observation / body weight / body weight gain + systemic / in life observation / clinical signs / defecation (diarrhea) + …

COc1cc(C(C)C)c2c(c1)S(=O)(=O)N(COc1cc(=O)n3cccc(OCCN4CCCCC4)c3n1)C2=O
LEL (rat [1]; [12]): 30 mg/kg/day
NEL (rat [1]; [12]): < 30 mg/kg/day
LOAEL (rat [1]; [13]): 100 mg/kg/day
NOAEL (rat [1]; [13]): 30 mg/kg/day
LEL (dog [2]): 10 mg/kg/day
LOAEL (dog [2]): > 100 mg/kg/day
NEL (dog [2]): < 10 mg/kg/day
NOAEL (dog [2]): ≥ 100 mg/kg/day

Cc1nc(N(C)C)nc(OC(=O)N(C)C)c1C [Pirimicarb]
LEL (dog [3]): 4 mg/kg/day
LOAEL (dog [3]): 4 mg/kg/day
NEL (dog [3]): 1.8 mg/kg/day
NOAEL (dog [3]): 1.8 mg/kg/day
LEL (rat [4]; [14]): 75 mg/kg/day
LOAEL (rat [4]; [14]): 75 mg/kg/day
NEL (rat [4]; [14]): 25 mg/kg/day
NOAEL (rat [4]; [14]): 25 mg/kg/day
LEL (rat [4]; [15]): 75 mg/kg/day
LOAEL (rat [4]; [15]): 75 mg/kg/day
NEL (rat [4]; [15]): 25 mg/kg/day
NOAEL (rat [4]; [15]): 25 mg/kg/day
LEL (dog [5]; [16]): 10 mg/kg/day
LOAEL (dog [5]; [16]): 10 mg/kg/day
NEL (dog [5]; [16]): 4 mg/kg/day
NOAEL (dog [5]; [16]): 4 mg/kg/day
LEL (dog [5]; [17]): 4 mg/kg/day
LOAEL (dog [5]; [17]): 4 mg/kg/day
NEL (dog [5]; [17]): 1.8 mg/kg/day
NOAEL (dog [5]; [17]): 1.8 mg/kg/day
LEL (rat [6]; [18]): 90.1 mg/kg/day
LOAEL (rat [6]; [18]): 90.1 mg/kg/day
NEL (rat [6]; [18]): 23.2 mg/kg/day
NOAEL (rat [6]; [18]): 23.2 mg/kg/day
LEL (rat [6]; [19]): 81.8 mg/kg/day
LOAEL (rat [6]; [19]): 81.8 mg/kg/day
NEL (rat [6]; [19]): 21.7 mg/kg/day
NOAEL (rat [6]; [19]): 21.7 mg/kg/day

ClC1=C(Cl)C(Cl)(Cl)C(Cl)=C1Cl [Hexachlorocyclopentadiene]
LOAEL (mouse [7]; [20]): > 300 mg/kg/day
NOAEL (mouse [7]; [20]): ≥ 300 mg/kg/day
LEL (mouse [7]; [21]): 19 mg/kg/day
NEL (mouse [7]; [21]): < 19 mg/kg/day
LOAEL (mouse [8]; systemic / in life observation / body weight / body weight + systemic / pathology microscopic / nose / inflammation): 0.2 ppm
NOAEL (mouse [8]; systemic / in life observation / body weight / body weight + systemic / pathology microscopic / nose / inflammation + systemic / pathology …): 0.05 ppm
LEL (mouse [8]; [22]): 0.01 ppm
NEL (mouse [8]; [22]): < 0.01 ppm
LEL (rat [9]): 0.01 ppm
LOAEL (rat [9]): > 0.2 ppm
NEL (rat [9]): < 0.01 ppm
NOAEL (rat [9]): ≥ 0.2 ppm
LOAEL (rat [10]; [20]): > 150 mg/kg/day
NEL (rat [10]; [20]): 10 mg/kg/day
NOAEL (rat [10]; [20]): ≥ 150 mg/kg/day
LEL (rat [10]; systemic / pathology microscopic / stomach / hyperplasia + systemic / pathology microscopic / stomach / inflammation): 19 mg/kg/day
LEL (rabbit; [23]): 75 mg/kg/day
LOAEL (rabbit; [23]): > 75 mg/kg/day
NEL (rabbit; [23]): 25 mg/kg/day
NOAEL (rabbit; [23]): ≥ 75 mg/kg/day
LEL (rabbit; [24]): 75 mg/kg/day
LOAEL (rabbit; [24]): 75 mg/kg/day
NEL (rabbit; [24]): 25 mg/kg/day
NOAEL (rabbit; [24]): 25 mg/kg/day
LEL (rat [11]): 0.01 ppm
LOAEL (rat [11]): > 0.2 ppm
NEL (rat [11]): < 0.01 ppm
NOAEL (rat [11]): ≥ 0.2 ppm
